Measurements as given in PMC12166061, “Crystallographic fragment screening reveals ligand hotspots in TRIM21 PRY-SPRY domain” (Communications Chemistry, 2025).
Read-outs that look alike come from different tables or passages of the source.

How the values were obtained:
Assay type in all cases: binding
[1] = biological target: T1, His-SUMO-hTRIM21 PRY-SPRY (Homo sapiens, UniProt P19474); assay: SPR fragment screening, human TRIM21 PRY-SPRY
T1 construct: Human TRIM21 PRY-SPRY domain (residues V287-I465, UniProt-ID: P19474); made in house; host or cells: E. coli BL21(DE3)
Protocol: (§1) His-mTRIM21 PRYSPRY and His-SUMO-hTRIM21 PRY-SPRY were immobilized onto flow channels (FC) FC2, FC3, and FC4 of a Series S sensor chip NTA (Cytiva). […] Proteins (10–20 µg mL^−1 in HBS-P+) were injected at 10 µL min^−1 to achieve response levels of 3500–4300 RU for mTRIM21 and 3600–4000 RU for hTRIM21. Flow channel 1 (FC1) was used as a reference surface. Surface deactivation and nickel stripping were achieved using 1 M ethanolamine and 350 mM ethylenediaminetetraacetic acid (EDTA), respectively.
(§2) Fragment screening was conducted by injecting 500 µM fragments diluted in running buffer (HBS-P+ with 1 mM TCEP and 2% (v/v) dimethyl sulfoxide (DMSO)) over all flow-channels for 30 s at 30 µL/min^−1. To account for surface drift, 50 µM of a control compound (Suramin) was injected every 15 fragment injections, and blank injections were performed every 5 fragments. Responses were analyzed by blank subtraction, reference subtraction (FC1), solvent correction, molecular weight adjustment, and drift correction using Biacore T200 Evaluation Software v3.2.1. The binding threshold for fragment hits was set based on the Suramin-binding response level.

[2] = biological target: T2, murine TRIM21 PRY-SPRY domain (Mus musculus, UniProt Q62191); assay: Differential scanning fluorimetry (DSF, ΔTm), mouse TRIM21 PRY-SPRY domain
T2 construct: mouse TRIM21 PRY-SPRY domain (residues V291-M470, UniProt-ID: Q62191); made in house; host or cells: E. coli BL21(DE3)
T2 sequence (Q62191 291-470): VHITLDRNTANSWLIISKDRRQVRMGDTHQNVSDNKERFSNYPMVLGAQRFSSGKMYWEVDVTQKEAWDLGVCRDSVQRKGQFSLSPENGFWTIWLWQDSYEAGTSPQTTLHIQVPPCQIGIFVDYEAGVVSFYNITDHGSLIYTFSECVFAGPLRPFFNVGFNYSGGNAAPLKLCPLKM
Protocol: (§3) Briefly, recombinant murine and human TRIM21 PRY-SPRY domain at a concentration of 8 μM were mixed with 2 mM compound in their respective SEC buffer. SYPRO Orange (5000×, Invitrogen) was added as a fluorescence probe (1 µl per mL). Subsequently, temperature-dependent protein unfolding profiles were measured using the QuantStudio™ 5 realtime PCR machine (Thermo Fisher). Excitation and emission filters were set to 465 nm and 590 nm, respectively. The temperature was raised with a step rate of 3 °C per minute. Data points were analysed with the internal software (Thermal Shift SoftwareTM Version 1.4, Thermo Fisher) using the Boltzmann equation to determine the inflection point of the transition curve.

[3] = biological target: T3, His-mTRIM21 PRYSPRY (Mus musculus, UniProt Q62191); assay: SPR fragment screening and dose response, mouse TRIM21 PRY-SPRY
T3 construct: mouse TRIM21 PRY-SPRY domain (residues V291-M470, UniProt-ID: Q62191); made in house; host or cells: E. coli BL21(DE3)
T3 sequence (Q62191 291-470): T2 sequence (Q62191 291-470)
Protocol: as §1, §2
The data was solvent-corrected, reference-subtracted (FC1), and blank-subtracted using the T200 Evaluation Software v3.2.1. Sensorgrams were subsequently replotted using Graphpad v.9 software.

[4] = biological target: T4, human TRIM21 PRY-SPRY domain (Homo sapiens, UniProt P19474); assay: Differential scanning fluorimetry (DSF, ΔTm), human TRIM21 PRY-SPRY domain
T4 construct: Human TRIM21 PRY-SPRY domain (residues V287-I465, UniProt-ID: P19474); His6 (N, cleaved yes); SUMO (N, cleaved yes); made in house; host or cells: E. coli BL21(DE3)
Protocol: as §3

[5] = single dose 500 µM fragment, relative response, suramin reference threshold 100 relative RU

T4 sequence (P19474 287-465): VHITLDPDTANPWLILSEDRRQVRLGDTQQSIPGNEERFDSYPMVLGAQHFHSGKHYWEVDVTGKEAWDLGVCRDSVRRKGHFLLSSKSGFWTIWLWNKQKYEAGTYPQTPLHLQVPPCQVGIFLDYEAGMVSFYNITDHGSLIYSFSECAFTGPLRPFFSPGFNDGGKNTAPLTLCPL
T1 sequence (P19474 287-465): as above

SMILES	SPR hTRIM21 (Response) [1, 5]	Tm-shift mTRIM21 ([2]; 2 mM compound, 8 μM protein)	SPR mTRIM21 (Response) [3, 5]	Tm-Shift hTRIM21 ([4]; 2 mM compound, 8 μM protein)	SPR hTRIM21 (Response) [1]	Tm-shift mTRIM21 [2]	SPR mTRIM21 (Response) [3]	Tm-Shift hTRIM21 [4]
CC(NS(C)(=O)=O)c1ccccc1Cl (centres unmarked) [Fragment Z133729708]	74.68	-0.8 °C	60.52	-0.7 °C				
CNC(=O)c1ccc(S(N)(=O)=O)cc1 [Fragment Z165170770]	49.74	-0.4 °C	49.37	0 °C				
NC(=O)N1CCN(C(=O)c2ccco2)CC1 [Fragment Z198194396]	34.19	-0.2 °C	38.54	-0.2 °C				
CC(NC(=O)C1CC1)c1cccnc1 (centres unmarked) [Fragment Z220996120]	149.8	-0.1 °C	171.5	0 °C				
Nc1ccc(S(=O)(=O)Nc2ccccn2)cc1 [Fragment Z271004858]	79.01	-0.1 °C	106.3	-0.1 °C				
Cc1cc(N2CCNCC2)nc(C)n1 [Fragment Z274575916]	76.44	0 °C	164.1	0.2 °C				
O=C(NC1CC1)c1cnn2cccnc12 [Fragment Z285642082]					43.71	-0.3 °C	44.74	-0.2 °C
NC(=S)Nc1ccccc1OC(F)(F)F [Fragment Z291279160]					45.42	-0.4 °C	37.66	-0.2 °C
Cc1nccn1Cc1cccc(C#N)c1 [Fragment Z319545618]					11.39	-0.3 °C	30.53	0 °C
CC(C)N(C)c1ncnc2c1cnn2C [Fragment Z328695024]	48.11	-0.6 °C	47.77	-0.6 °C				
CN(CC(=O)N1CCCCC1)S(C)(=O)=O [Fragment Z363071686]					20.46	-0.1 °C	39.85	-0.2 °C
Cc1c(C(C)NS(C)(=O)=O)cnn1C (centres unmarked) [Fragment Z369263636]	36.54	-0.1 °C	35.15	0.1 °C				
CCn1cc(NC(=O)C2CCC2)cn1 [Fragment Z373768900]					21.88	-0.4 °C	20.02	-0.3 °C
CC(=O)NCc1ccnc(N(C)C)c1 [Fragment Z374427992]	46.45	-0.1 °C	50.3	-0.1 °C				
CCC(=O)N1CCCC(NS(C)(=O)=O)C1 (centres unmarked) [Fragment Z405825414]	27.61	-0.2 °C	27.91	0 °C				
CCOc1ccccc1N1CCNCC1.Cl [Fragment Z425387594]					61.98	-0.1 °C	98.47	0 °C
CC(=O)N1CCCC(CNS(C)(=O)=O)C1 (centres unmarked) [Fragment Z438096750]	40.93	0 °C	42.61	-0.2 °C				
O=C(c1csnn1)N1CCOCC1 [Fragment Z741055844]	28.98	-0.2 °C	32.54	-0.1 °C				
OCc1cn(-c2ccc(Cl)cc2)nn1 [Fragment Z1374778753]					114.8		169.5	
